{"source": "paper PMC5218480", "about": "(PLoS ONE, 2017)", "test_system": "MV-4-11 cells", "assay": "Gene expression microarray analysis (Affymetrix PrimeView) and GSEA", "type": "cell-based, human", "parameters": "RFU PODN (11730768_x_at) / Fold change /veh PODN (11730768_x_at) / RFU LINC00158 (11744669_a_at) / Fold change /veh LINC00158 (11744669_a_at) / RFU DUSP10 (11751237_a_at) / Fold change /veh DUSP10 (11751237_a_at) / RFU ID3 (11757404_x_at) / Fold change /veh ID3 (11757404_x_at) / RFU PLEKHG5 (11737974_s_at) / Fold change /veh PLEKHG5 (11737974_s_at) / RFU LRRC4B (11730491_at) / Fold change /veh LRRC4B (11730491_at) / RFU GIMAP4 (11747438_a_at) / Fold change /veh GIMAP4 (11747438_a_at) / RFU KRT8 (11758183_x_at) / Fold change /veh KRT8 (11758183_x_at) / RFU CNN1 (11734310_a_at) / Fold change /veh CNN1 (11734310_a_at) / RFU VPS37D (11726825_at) / Fold change /veh VPS37D (11726825_at) / RFU C10orf10 (11716522_x_at) / Fold change /veh C10orf10 (11716522_x_at) / RFU KIR2DL2 /// KIR2DL4 /// KIR2DL5A /// KIR2DL5B /// KIR2DS1 /// KIR2DS2 /// KIR2DS3 /// KIR2DS4 /// KIR3DL3 /// KIR3DL3 /// KIR3DS1 (11738374_at) / Fold change /veh KIR2DL2 /// KIR2DL4 /// KIR2DL5A /// KIR2DL5B /// KIR2DS1 /// KIR2DS2 /// KIR2DS3 /// KIR2DS4 /// KIR3DL3 /// KIR3DL3 /// KIR3DS1 (11738374_at) / RFU C1QL1 (11718748_at) / Fold change /veh C1QL1 (11718748_at) / RFU TMPRSS4 (11747572_a_at) / Fold change /veh TMPRSS4 (11747572_a_at) / RFU HAMP (11756126_x_at) / Fold change /veh HAMP (11756126_x_at) / RFU RNFT2 (11725882_a_at) / Fold change /veh RNFT2 (11725882_a_at) / RFU NR4A2 (11747474_a_at) / Fold change /veh NR4A2 (11747474_a_at) / RFU ABCC12 (11746883_a_at) / Fold change /veh ABCC12 (11746883_a_at) / RFU TMEM136 (11760407_x_at) / Fold change /veh TMEM136 (11760407_x_at) / RFU CLDN22 /// WWC2 (11732394_at) / Fold change /veh CLDN22 /// WWC2 (11732394_at) / RFU HLA-DPB1 (11760878_x_at) / Fold change /veh HLA-DPB1 (11760878_x_at) / RFU SPINT1 (11716480_a_at) / Fold change /veh SPINT1 (11716480_a_at) / RFU GAP43 (11754022_s_at) / Fold change /veh GAP43 (11754022_s_at) / RFU A4GNT (11735810_at) / Fold change /veh A4GNT (11735810_at) / RFU PRB3 (11715151_x_at) / Fold change /veh PRB3 (11715151_x_at) / RFU TUBB4B (11761932_at) / Fold change /veh TUBB4B (11761932_at) / RFU CAPN14 (11732068_a_at) / Fold change /veh CAPN14 (11732068_a_at) / RFU TMCC2 (11721928_a_at) / Fold change /veh TMCC2 (11721928_a_at) / RFU IRGQ (11745062_a_at) / Fold change /veh IRGQ (11745062_a_at) / RFU FAM174B (11720279_a_at) / Fold change /veh FAM174B (11720279_a_at) / RFU TMPRSS4 (11748680_a_at) / Fold change /veh TMPRSS4 (11748680_a_at) / RFU FAM212B (11763350_a_at) / Fold change /veh FAM212B (11763350_a_at) / RFU PLEKHG5 (11743358_a_at) / Fold change /veh PLEKHG5 (11743358_a_at) / RFU ZSCAN30 (11745921_a_at) / Fold change /veh ZSCAN30 (11745921_a_at) / RFU CMKLR1 (11741424_a_at) / Fold change /veh CMKLR1 (11741424_a_at) / RFU LOC101060620 /// MAPK8IP1 (11723275_at) / Fold change /veh LOC101060620 /// MAPK8IP1 (11723275_at) / RFU SPTSSB (11747773_x_at) / Fold change /veh SPTSSB (11747773_x_at) / RFU PRSS12 (11739890_at) / Fold change /veh PRSS12 (11739890_at) / RFU BIN1 (11741810_x_at) / Fold change /veh BIN1 (11741810_x_at) / RFU WNT11 (11732464_a_at) / Fold change /veh WNT11 (11732464_a_at) / RFU C10orf10 (11716521_a_at) / Fold change /veh C10orf10 (11716521_a_at) / RFU C5orf56 (11738089_at) / Fold change /veh C5orf56 (11738089_at) / RFU CYB561 (11721691_x_at) / Fold change /veh CYB561 (11721691_x_at) / RFU ANKRD19P (11752326_a_at) / Fold change /veh ANKRD19P (11752326_a_at) / RFU OR2T12 /// OR2T33 /// OR2T8 (11738714_s_at) / Fold change /veh OR2T12 /// OR2T33 /// OR2T8 (11738714_s_at) / RFU VCAN (11748164_a_at) / Fold change /veh VCAN (11748164_a_at) / RFU JSRP1 (11732532_at) / Fold change /veh JSRP1 (11732532_at) / RFU KRTAP10-11 (11738290_x_at) / Fold change /veh KRTAP10-11 (11738290_x_at) / RFU MYO3A (11730013_a_at) / Fold change /veh MYO3A (11730013_a_at) / RFU EBF3 (11725865_a_at) / Fold change /veh EBF3 (11725865_a_at) / RFU CAMK2N1 (11719241_x_at) / Fold change /veh CAMK2N1 (11719241_x_at) / RFU C5orf56 (11738088_a_at) / Fold change /veh C5orf56 (11738088_a_at) / RFU OLFML3 (11715873_a_at) / Fold change /veh OLFML3 (11715873_a_at) / RFU LOC100653217 /// NTM (11731650_a_at) / Fold change /veh LOC100653217 /// NTM (11731650_a_at) / RFU MAPK11 (11762145_a_at) / Fold change /veh MAPK11 (11762145_a_at) / RFU FIZ1 (11724087_x_at) / Fold change /veh FIZ1 (11724087_x_at) / RFU OASL (11726364_x_at) / Fold change /veh OASL (11726364_x_at) / RFU SOX15 (11748057_x_at) / Fold change /veh SOX15 (11748057_x_at) / RFU CD79A (11719716_a_at) / Fold change /veh CD79A (11719716_a_at) / RFU HIST1H1D (11736915_at) / Fold change /veh HIST1H1D (11736915_at) / RFU CASKIN2 (11723855_a_at) / Fold change /veh CASKIN2 (11723855_a_at) / RFU LOC730098 (11760151_x_at) / Fold change /veh LOC730098 (11760151_x_at) / RFU OR4N2 (11742367_at) / Fold change /veh OR4N2 (11742367_at) / RFU PRRT2 (11749266_a_at) / Fold change /veh PRRT2 (11749266_a_at) / RFU SNX32 (11753110_a_at) / Fold change /veh SNX32 (11753110_a_at) / RFU CDHR5 (11726645_a_at) / Fold change /veh CDHR5 (11726645_a_at) / RFU RCAN1 (11760418_a_at) / Fold change /veh RCAN1 (11760418_a_at) / RFU FAM167A (11723789_a_at) / Fold change /veh FAM167A (11723789_a_at) / RFU FAM26E (11764081_at) / Fold change /veh FAM26E (11764081_at) / RFU ISYNA1 (11749810_s_at) / Fold change /veh ISYNA1 (11749810_s_at) / RFU ACY1 (11761880_at) / Fold change /veh ACY1 (11761880_at) / RFU 11764098_at / Fold change /veh 11764098_at / RFU SAMD14 (11745864_x_at) / Fold change /veh SAMD14 (11745864_x_at) / RFU NPB (11741838_a_at) / Fold change /veh NPB (11741838_a_at) / RFU TMPRSS6 (11731388_a_at) / Fold change /veh TMPRSS6 (11731388_a_at) / RFU KRTAP10-2 (11738614_at) / Fold change /veh KRTAP10-2 (11738614_at) / RFU ARHGAP8 /// PRR5-ARHGAP8 (11727945_x_at) / Fold change /veh ARHGAP8 /// PRR5-ARHGAP8 (11727945_x_at) / RFU KRTAP5-7 /// NADSYN1 (11734609_at) / Fold change /veh KRTAP5-7 /// NADSYN1 (11734609_at) / RFU RASL12 (11751679_a_at) / Fold change /veh RASL12 (11751679_a_at) / RFU CDKN2B (11736163_a_at) / Fold change /veh CDKN2B (11736163_a_at) / RFU PRF1 (11729649_at) / Fold change /veh PRF1 (11729649_at) / RFU, ZNF638 /// ZNF638-IT1 / Fold change vs veh, ZNF638 /// ZNF638-IT1 / RFU, PANK3 / Fold change vs veh, PANK3 / RFU, SH3YL1 / Fold change vs veh, SH3YL1 / RFU, ZEB2 / Fold change vs veh, ZEB2 / RFU, NRIP1 / Fold change vs veh, NRIP1 / RFU, PTTG1IP / Fold change vs veh, PTTG1IP / RFU, CAPN2 / Fold change vs veh, CAPN2 / RFU, MED14 / Fold change vs veh, MED14 / RFU, SNORA58 / Fold change vs veh, SNORA58 / RFU, C1orf63 / Fold change vs veh, C1orf63 / RFU, LRRFIP1 / Fold change vs veh, LRRFIP1 / RFU, NDUFAF7 / Fold change vs veh, NDUFAF7 / RFU, SLC12A2 / Fold change vs veh, SLC12A2 / RFU, IBTK / Fold change vs veh, IBTK / RFU, ESF1 / Fold change vs veh, ESF1 / Fold change vs veh, TMEM50B / RFU, TAOK1 / Fold change vs veh, TAOK1 / RFU, ACBD3 / Fold change vs veh, ACBD3 / RFU, TMA16 / Fold change vs veh, TMA16 / RFU, RWDD3 / Fold change vs veh, RWDD3 / RFU, BCAT1 / Fold change vs veh, BCAT1 / RFU, EDEM3 / Fold change vs veh, EDEM3 / RFU, TMEM33 / Fold change vs veh, TMEM33 / RFU, WDR75 / Fold change vs veh, WDR75 / RFU, AHCTF1 / Fold change vs veh, AHCTF1 / RFU, TFRC / Fold change vs veh, TFRC / RFU, ZDHHC17 / Fold change vs veh, ZDHHC17 / RFU, NOM1 / Fold change vs veh, NOM1 / RFU, ARL8B / Fold change vs veh, ARL8B / RFU, ZBTB11 / Fold change vs veh, ZBTB11 / RFU, TAMM41 / Fold change vs veh, TAMM41 / RFU, KIAA1704 /// LOC100996395 / Fold change vs veh, KIAA1704 /// LOC100996395 / RFU, ING1 / Fold change vs veh, ING1 / RFU, TRMT61B / Fold change vs veh, TRMT61B / RFU, FUBP3 / Fold change vs veh, FUBP3 / RFU, TP53 / Fold change vs veh, TP53 / RFU, TNKS2 / Fold change vs veh, TNKS2 / RFU, ZFP14 / Fold change vs veh, ZFP14 / RFU, ACTR2 / Fold change vs veh, ACTR2 / RFU, PPP3R1 / Fold change vs veh, PPP3R1 / RFU, PIK3R1 / Fold change vs veh, PIK3R1 / RFU, HNRNPA1 / Fold change vs veh, HNRNPA1 / RFU, RNF170 / Fold change vs veh, RNF170 / RFU, ZNF28 / Fold change vs veh, ZNF28 / RFU, RNGTT / Fold change vs veh, RNGTT / RFU, OGT / Fold change vs veh, OGT / RFU, BRD1 / Fold change vs veh, BRD1 / RFU, MARS / Fold change vs veh, MARS / RFU, ZNF655 / Fold change vs veh, ZNF655 / RFU, FAHD1 / Fold change vs veh, FAHD1 / RFU, BDP1 / Fold change vs veh, BDP1 / RFU, LRRCC1 / Fold change vs veh, LRRCC1 / RFU, ARID1A / Fold change vs veh, ARID1A / RFU, ZNF146 / Fold change vs veh, ZNF146 / RFU, ZNF330 / Fold change vs veh, ZNF330 / RFU, GPN3 / Fold change vs veh, GPN3 / RFU, C9orf123 / Fold change vs veh, C9orf123 / RFU, N4BP2L2 / Fold change vs veh, N4BP2L2 / RFU, ARFIP1 / Fold change vs veh, ARFIP1 / RFU, FAM179B / Fold change vs veh, FAM179B / RFU, BCL10 / Fold change vs veh, BCL10 / RFU, UHRF1BP1L / Fold change vs veh, UHRF1BP1L / RFU, BET1 / Fold change vs veh, BET1 / RFU, CNOT2 / Fold change vs veh, CNOT2 / RFU, ZNF268 / Fold change vs veh, ZNF268 / Fold change vs veh, ZNF507 / RFU, DGCR2 / Fold change vs veh, DGCR2 / RFU, WDSUB1 / Fold change vs veh, WDSUB1 / Fold change vs veh, HSP90B1 /// MIR3652 / RFU, ADSS / Fold change vs veh, ADSS / RFU, GK / Fold change vs veh, GK / RFU, ZNF148 / Fold change vs veh, ZNF148 / RFU, TAF9 / Fold change vs veh, TAF9 / RFU, SLC1A5 / Fold change vs veh, SLC1A5 / RFU, SLMO2 / Fold change vs veh, SLMO2 / RFU, ABCC4 / Fold change vs veh, ABCC4 / RFU, LOC101060439 /// RAP1B / Fold change vs veh, LOC101060439 /// RAP1B / RFU, RFX7 / Fold change vs veh, RFX7 / RFU, GTPBP10 / Fold change vs veh, GTPBP10 / RFU, CNEP1R1 / Fold change vs veh, CNEP1R1 / RFU, BIVM-ERCC5 /// ERCC5 / Fold change vs veh, BIVM-ERCC5 /// ERCC5 / RFU, ILF3 / Fold change vs veh, ILF3 / RFU 11762660_at / Fold change /veh 11762660_at / RFU VCAN (11757783_s_at) / Fold change /veh VCAN (11757783_s_at) / RFU DDX43 (11728927_at) / Fold change /veh DDX43 (11728927_at) / RFU KRT8 (11758188_x_at) / Fold change /veh KRT8 (11758188_x_at) / RFU NKD1 (11759106_at) / Fold change /veh NKD1 (11759106_at) / RFU SRD5A1 (11742802_a_at) / Fold change /veh SRD5A1 (11742802_a_at) / RFU TPSAB1 /// TPSB2 (11721975_s_at) / Fold change /veh TPSAB1 /// TPSB2 (11721975_s_at) / RFU GSTM3 (11746129_a_at) / Fold change /veh GSTM3 (11746129_a_at) / RFU IL23R (11737362_x_at) / Fold change /veh IL23R (11737362_x_at) / RFU TMEM51 (11727254_a_at) / Fold change /veh TMEM51 (11727254_a_at) / RFU PIWIL2 (11732686_x_at) / Fold change /veh PIWIL2 (11732686_x_at) / RFU ORM1 (11744905_x_at) / Fold change /veh ORM1 (11744905_x_at) / RFU CCDC152 (11743942_at) / Fold change /veh CCDC152 (11743942_at) / RFU ECM1 (11717891_a_at) / Fold change /veh ECM1 (11717891_a_at) / RFU IL23R (11748794_a_at) / Fold change /veh IL23R (11748794_a_at) / RFU TNFAIP8L3 (11732012_x_at) / Fold change /veh TNFAIP8L3 (11732012_x_at) / RFU MBOAT4 (11741988_at) / Fold change /veh MBOAT4 (11741988_at) / RFU 11764193_at / Fold change /veh 11764193_at / RFU TMEM53 (11763286_at) / Fold change /veh TMEM53 (11763286_at) / RFU MAGEB2 (11727129_at) / Fold change /veh MAGEB2 (11727129_at) / RFU TMEM200A (11744735_a_at) / Fold change /veh TMEM200A (11744735_a_at) / RFU CCDC152 (11751479_a_at) / Fold change /veh CCDC152 (11751479_a_at) / RFU FAM211A (11726209_a_at) / Fold change /veh FAM211A (11726209_a_at) / RFU RGS16 (11746705_a_at) / Fold change /veh RGS16 (11746705_a_at) / RFU VCAN (11755009_s_at) / Fold change /veh VCAN (11755009_s_at) / RFU RHOB (11743442_s_at) / Fold change /veh RHOB (11743442_s_at) / RFU RGS16 (11720943_a_at) / Fold change /veh RGS16 (11720943_a_at) / RFU RGS16 (11720944_at) / Fold change /veh RGS16 (11720944_at) / RFU, VPS4B / Fold change vs veh, VPS4B / RFU, CREB1 / Fold change vs veh, CREB1 / RFU, DNAJC13 / Fold change vs veh, DNAJC13 / RFU, GNAQ / Fold change vs veh, GNAQ / RFU, CDK5R1 / Fold change vs veh, CDK5R1 / RFU, ZRANB3 / Fold change vs veh, ZRANB3 / RFU, CUL4A / Fold change vs veh, CUL4A / RFU, CCNY / Fold change vs veh, CCNY / RFU, UFL1 / Fold change vs veh, UFL1 / RFU, COG3 / Fold change vs veh, COG3 / RFU, DIAPH2 / Fold change vs veh, DIAPH2 / RFU, SKA2 / Fold change vs veh, SKA2 / RFU, AFF3 / Fold change vs veh, AFF3 / RFU, LMF1 / Fold change vs veh, LMF1 / RFU, IPO11 / Fold change vs veh, IPO11 / RFU, DFFB / Fold change vs veh, DFFB / RFU, FOXP1 / Fold change vs veh, FOXP1 / RFU, CARD8 / Fold change vs veh, CARD8 / RFU, STRN3 / Fold change vs veh, STRN3 / RFU, ADK / Fold change vs veh, ADK / RFU, RASSF2 / Fold change vs veh, RASSF2 / RFU, WIPF1 / Fold change vs veh, WIPF1 / RFU, LARP1B / Fold change vs veh, LARP1B / RFU, RASA1 / Fold change vs veh, RASA1 / RFU, RB1 / Fold change vs veh, RB1 / RFU, PPFIA1 / Fold change vs veh, PPFIA1 / RFU, MAT2A / Fold change vs veh, MAT2A / RFU, CCT5 / Fold change vs veh, CCT5 / RFU, WDR92 / Fold change vs veh, WDR92 / RFU, CUX1 / Fold change vs veh, CUX1 / RFU, TTC7A / Fold change vs veh, TTC7A / RFU, TMEM135 / Fold change vs veh, TMEM135 / RFU, DEPTOR / Fold change vs veh, DEPTOR / RFU, CPM / Fold change vs veh, CPM / RFU, DNAJB6 / Fold change vs veh, DNAJB6 / RFU, CACNA2D3 / Fold change vs veh, CACNA2D3 / RFU, DTX4 / Fold change vs veh, DTX4 / RFU, TFCP2 / Fold change vs veh, TFCP2 / RFU, GMCL1 /// GMCL1P1 / Fold change vs veh, GMCL1 /// GMCL1P1 / RFU, AEBP2 / Fold change vs veh, AEBP2 / RFU, SNHG1 /// SNORD22 /// SNORD25 /// SNORD26 /// SNORD27 /// SNORD28 /// SNORD29 /// SNORD31 / Fold change vs veh, SNHG1 /// SNORD22 /// SNORD25 /// SNORD26 /// SNORD27 /// SNORD28 /// SNORD29 /// SNORD31 / Fold change (Aza/veh), C12orf56 (ProbeSet 11735607_a_at) / Fold change (ACY-1035/veh), C12orf56 (ProbeSet 11735607_a_at) / Fold change (Aza/veh), FGFR1OP (ProbeSet 11751329_s_at) / Fold change (ACY-1035/veh), FGFR1OP (ProbeSet 11751329_s_at) / Fold change (Aza/veh), VPS36 (ProbeSet 11739960_a_at) / Fold change (ACY-1035/veh), VPS36 (ProbeSet 11739960_a_at) / RFU SYPL1 (11715823_x_at) / Fold change /veh SYPL1 (11715823_x_at) / RFU IGFBP7 (11715501_s_at) / Fold change /veh IGFBP7 (11715501_s_at) / RFU REEP3 (11722064_at) / Fold change /veh REEP3 (11722064_at) / RFU IGLL1 (11728026_x_at) / Fold change /veh IGLL1 (11728026_x_at): dose or concentration left out as unconfirmed", "settings": "MV-4-11 cells, 48 hours"}
{"smiles": "Nc1ccc(-c2cccs2)cc1NC(=O)c1ccc2c(c1)cc(C1CC1)n2CCN1CCOCC1", "note": "[ACY-1035]", "values": [{"measurement": "Fold change /veh FAM212B (11763350_a_at)", "value": 1.09}]}
